Test results from US6620848B2, “Nitric oxide synthase inhibitors” (SmithKline Beecham Corporation, priority 1997, dated 2003).

Columns and labels:
iNOS = target: T1, iNOS (Rattus norvegicus, UniProt Q06518); test: Inhibition of iNOS in situ in rat aortic rings (induced smooth muscle tone, LPS-exposed endothelium-denuded rings); format: cell-based; settings: for IC50: endothelium-denuded, LPS 6 h, phenylephrine approx. ED90
T1 construct: endothelium-denuded rings were exposed to LPS; from tissue; host or cells: rat thoracic aorta rings, endothelium-denuded, LPS-exposed
Experimental: (§1) 1. Inhibition of eNOS and iNOS in Rat Aortic Rings
(§2) The inhibition of eNOS and iNOS in situ in rat aortic rings was assessed by measuring the increases in ring tension caused by NO synthase inhibition. For studies of basal tone (reflecting eNOS), rings of thoracic aorta with intact endothelium were prepared as described previously (Rees et al. (1989) Br. J. Pharmol. 96, 418-424) and cumulative concentration curves obtained for the inhibitors in the presence of a threshold concentration of phenylephrine (ED10≈10 nM). For studies of induced smooth muscle tone (reflecting iNOS), endothelium-denuded rings were exposed to LPS (0.1 μ/ml from S. typhosa) in the presence of phenylephrine at approximately ED90 for 6 h as described previously (Rees et al. (1990) Biochem. Biophys. Res. Commun. 173, 541-547). During this time a progressive loss of tone occurred because of iNOS induction. Cumulative concentration curves were then obtained for the inhibitors.

eNOS = target: T2, eNOS (Rattus norvegicus, UniProt Q62600); test: Inhibition of eNOS in situ in rat aortic rings (basal tone, intact endothelium); format: cell-based; settings: rat aortic rings with intact endothelium, threshold phenylephrine
T2 construct: from tissue; host or cells: rat thoracic aorta rings with intact endothelium
Experimental: as §1, §2

selectivity iNOS vs eNOS (iNOS)	IC50 (iNOS)	eNOS % inhib @ 300 μM (eNOS)	SMILES
>150 fold	6.6 µM	20%	CC(=N)NCCSCC[C@@H](N)C(=O)O [Example 3, (R)-[2-(1-iminoethylamino)ethyl]-D-homocysteine]
>500 fold	0.45 µM	53%	CC(=N)NCCSCCC(N)C(=O)O (racemic) [Example 2, (R/S)-[2-(1-iminoethylamino)ethyl]-D,L-homocysteine]
